Data taken from patent US20220267258A1, “ROBENIDINE ANALOGS AS POTENT ANTIMALARIALS AGAINST DRUG-RESISTANT PLASMODIUM FALCIPARUM” (OREGON HEALTH & SCIENCE UNIVERSITY, priority 2021, published 2022).
Like-named read-outs stand apart in the source and are kept apart here.

Assays:
T. brucei = settings: read-out: in vitro IC50; cited from earlier work
T. cuzi = settings: read-out: in vitro IC50; cited from earlier work
P. falciparum = P. falciparum in vitro, in words; cited from earlier work
Leishmania donovani = settings: read-out: in vitro IC50; cited from earlier work
P. falciparum Dd2 = experiment: SYBR Green growth inhibition assay, P. falciparum Dd2; assay type: cell-based, Plasmodium falciparum; settings: read-out: IC50 Dd2
Description: (§1) In addition to the drug-sensitive P. falciparum D6 strain, the aminoguanidines were assessed against three drug-resistant strains (Tables 1-3).
(§2) The following parasite strains were used in this study and obtained through BEI Resources, NIAID, NIH. […] The culture medium used was RPMI-1640, supplemented with 25 mM HEPES buffer, 25 mg/L gentamicin sulfate, 45 mg/L hypoxanthine, 10 mM glucose, 2 mM glutamine, and 0.5% Albumax II (complete medium).^43 Cultures were maintained in a standard low oxygen atmosphere (5% O2, 5% CO2, 90% N2) in an environmental chamber and incubated at 37° C. Cultures were sub-passaged every 3-4 days into a fresh culture flask containing complete media and erythrocytes.
(§3) The aminoguanidine series was assessed for in vitro antiplasmodial activity using the fluorescence-based SYBR Green assay described previously by Smilkstein and co-workers.^38 Compounds were evaluated in quadruplicate in flat-bottomed Costar clear 96-well plates (Model #3585). A two-fold serial dilution of each compound was performed across the columns of the test plates starting with 20 μM and ending with a final untreated column to serve as control wells. Asynchronous parasite infected erythrocytes in growth media were added to each well for a total volume of 100 μL, final hematocrit of 2%, and initial parasitemia of 0.2%. The commercial malaria drugs atovaquone and chloroquine were used as control drugs. Test plates were incubated for 72 hr at 37° C. in an environmental chamber with a controlled low oxygen atmosphere (5% O2, 5% CO2, 90% N2). After the incubation period, 100 μL SYBR Green I dye-detergent solution was added to each well, and the plates were incubated at ambient temperature and atmosphere in the dark for at least one hour. Fluorescence was read at 497 nm excitation and 520 nm emission bands using a Spectramax iD3 plate reader. Fluorescence readings were normalized with respect to the untreated control wells representing normal parasite growth and plotted against the logarithm of drug concentration.

P. falciparum Tm90-C2B = experiment: SYBR Green growth inhibition assay, P. falciparum Tm90-C2B; assay type: cell-based, Plasmodium falciparum; settings: read-out: IC50 Tm90-C2B
Description: as §1, §2, §3

Plasmodium yoelii = experiment: modified 4-day Peters test, murine malaria; assay type: in vivo, mice; settings: for cure in this model: 4-day oral dosing, 0% parasitemia at day 30; for P. yoelii ED90 / P. yoelii ED50: oral gavage days 1-4, parasitemia day 5; for P. yoelii NRD (non-recrudescence dose, cure dose): oral, doses up to 25 mg/kg/day, no parasites at day 30
Description: In this modified 4-day Peters test,^41 mice were inoculated with parasites from a donor mouse (day 0), and then dosed orally with drugs on each of the subsequent four days (days 1-4). On day 5 of the experiment, the parasitemia for each mouse was determined microscopically by examining methanol-fixed and Giemsa-stained blood smears. The ED50 represents the interpolated dose of a compound at which parasitemia was suppressed to one half that of untreated controls. Similarly, the ED90 represents the dose at which parasitemia is suppressed ten-fold. Mice were considered cured of their infection if no parasites were detected in the blood 30 days from the first drug administration, and the non-recrudescence dose (NRD) represents the lowest dose to achieve a cure.
The in vivo ED50 and ED90 of selected aminoguanidines was measured using a modified 4-day Peters test. Female CF1 mice from Charles River Laboratories were inoculated intravenously with approximately 2.5-5.0×10^4 parasitized erythrocytes (murine malaria P. yoelii, Kenya strain MR4 MRA-428) from a donor mouse (experiment day zero). On the following four days (experiment days 1-4), solutions of the test compounds in PEG-300 (or PEG-300 only for control mice) were administered by oral gavage once daily. […] Parasitemia of each mouse was determined by microscopic examination of Giemsa stained blood smears on day 5. ED50 and ED90 values were assessed by generating dose-response curves relative to untreated controls using Graphpad Prism (v. 8). Mice were considered cured of malarial infection if they maintained 0% parasitemia at experiment day 30. The procedures involved, together with all matters relating to the care, handling, and housing of the animals used in this study, were approved by the Portland VA Medical Center Institutional Animal Care and Use Committee.

[1] = test system: human hepatoma derived HepG2 cells; experiment: HepG2 cytotoxicity assay (resazurin); assay type: cell-based; settings: for IC50: HepG2, 24 hr drug, 24 hr recovery
Description: (§4) In this assay, HepG2 cells were incubated with test compounds for 24 hours, followed by a 24-hour recovery period and subsequent staining to evaluate for cytotoxic effects with resazurin. The ratio of the resulting HepG2 IC50 value to the P. falciparum D6 IC50 value can be considered an ‘in vitro therapeutic index,’ or IVTI.
(§5) Compounds were prepared as 10 mM stock solutions in DMSO. […] HepG2 cells were added to each well of flat bottom 96-well tissue culture plates at an initial density of 2×10^4 cells per well, and an initial volume of 160 μL complete medium per well. After an overnight incubation at 37° C. to adhere the cells to the culture plates, 40 μL drug solutions in complete medium were applied to each well at a final concentration range of 0 to 200 μM across each plate. Drugs were tested in triplicate or quadruplicate. The cells were incubated for 24 hours at 37° C. and 5% CO2 with the drug solutions, which were then aspirated and replaced with 200 μL per well of complete medium for an additional 24 hour incubation under the same conditions. To each well was added 20 μL of resazurin (Alamar Blue) in PBS buffer to a final concentration of 10 μM, and the plates were incubated for 3 hours. Fluorescence was measured at 560 nm excitation and 590 nm emission bands using a Spectramax iD3 plate reader. Fluorescence readings were normalized with respect to the untreated control wells and plotted against the logarithm of drug concentration.

P. falciparum A6 = experiment: SYBR Green growth inhibition assay, P. falciparum A6; assay type: cell-based, Plasmodium falciparum; settings: read-out: IC50 A6
Description: as §1, §2, §3

P. falciparum strain D6 = experiment: SYBR Green growth inhibition assay, P. falciparum D6; assay type: cell-based, Plasmodium falciparum; settings: read-out: IC50 D6
Description: (§6) The in vitro activity of each compound in the aminoguanidine library was assessed against asynchronous cultures of Plasmodium falciparum parasites replicating within human erythrocytes (Tables 1-3). As the chemical development of robenidine was not discussed in its original publication in 1970^4 and limited structural information is available regarding its mechanism of action,^10 profiling was guided primarily by in vitro potency against the P. falciparum D6 strain cultured in human erythrocytes as described above.
as §2
as §3, with “The commercial malaria drugs atovaquone and chloroquine were used as control drugs.” left out

[2] = HepG2 cytotoxicity assay (resazurin); assay type: cell-based, human; settings: human, HepG2 cells; HepG2, 24 hr drug, 24 hr recovery
Description: as §4, §5

P. falciparum strains = assay type: cell-based, Plasmodium falciparum
Description: as §6
All aminoguanidines synthesized were also evaluated against three multi-drug resistant P. falciparum strains (Dd2, Tm90-C2B, and A6) and for mammalian cell cytotoxicity.
as §1
as §3, with “The commercial malaria drugs atovaquone and chloroquine were used as control drugs.” left out

[3] = test system: P. falciparum Dd2 infected erythrocytes; experiment: SYBR Green assay adapted to 48, 72 or 96 hr incubation; assay type: cell-based; settings: Plasmodium falciparum, DD2, Erythrocyte
Description: Many drugs have activity dependent on their exposure time in addition to concentration, and antimalarial potency is frequently stage-specific. To determine whether the aminoguanidines acted by a time-dependent mechanism against malaria parasites, the SYBR Green activity assay was adapted to include additional incubation intervals. Two potent aminoguanidines, 16 and 21, were incubated with P. falciparum Dd2 infected erythrocytes for 48, 72, or 96 hours (FIG. 3). […] A shorter incubation time allows for less parasite growth for all drug conditions, producing data with proportionally greater variability or ‘noise.’ Conversely, longer incubation times reduce noise in the resulting data.
Aminoguanidine activity appears to be driven primarily by drug concentration rather than by lengthening drug incubation time.
as §3

[4] = Plasmodium falciparum, DD2, 72 h
[5] = Plasmodium falciparum, TM90, 72 h
[6] = Plasmodium falciparum, D6, Erythrocyte, 72 h

Structure (SMILES)	IC50 (P. falciparum Dd2; [4]) [nM]	IC50 (P. falciparum Tm90-C2B; [5]) [nM]	IC50 (P. falciparum A6; Plasmodium falciparum, 72 h) [nM]	IC50 (P. falciparum strain D6; [6]) [nM]	P. yoelii ED90 (Plasmodium yoelii) [mg/kg/day]	P. yoelii NRD (non-recrudescence dose, cure dose) (Plasmodium yoelii) [mg/kg/day]	IC50 at 24 h [2] [nM]	also measured
Cl.Cl.Cl.N=C(N)c1cccc(/C=N/N=C(\N)N/N=C/c2cccc(C(=N)N)c2)c1 [CGP 40215A]	–	–	–	–	–	–	–	IC50 (T. brucei): 20000 nM; IC50 (T. cuzi): 20000 nM; IC50 value (P. falciparum): low micromolar; IC50 (Leishmania donovani): 18000 nM
CCN(CC)CCCC(C)Nc1ccnc2cc(Cl)ccc12 (centres unmarked) [Chloroquine, reference compound]	70	297	16	–	–	–	–	cure in this model (Plasmodium yoelii): not curative; IC50 [1]: 181000 nM
N#Cc1cc(/C=N/NC(=N)N/N=C/c2ccc(F)c(C#N)c2)ccc1F [Compound 1]	12	16	14	4	0.28	>25	8000	cure in this model (Plasmodium yoelii): not curative; IC50 values against P. falciparum strains (P. falciparum strains; in words): single-digit nanomolar
N=C(N/N=C/c1ccc(OC(F)(F)F)cc1)N/N=C/c1ccc(OC(F)(F)F)cc1 [Compound 16]	83	114	52	39	3.7	12.5	11000	P. yoelii ED50 (Plasmodium yoelii): 1.2 mg/kg/day; IC50 ([3]; 48 h, read-out: IC50 Dd2 48 hr): 410 nM; IC50 ([3]; 72 h, read-out: IC50 Dd2 72 hr): 195 nM; IC50 ([3]; 96 h, read-out: IC50 Dd2 96 hr): 192 nM
N#Cc1cccc(/C=N/NC(=N)N/N=C/c2cccc(C#N)c2)c1 [Compound 21]	20	31	24	7	9.4	>25	7000	P. yoelii ED50 (Plasmodium yoelii): 7.1 mg/kg/day; effect on Hep2G activity ([1]; concentrations as high as 200 μM): no measurable effect; IC50 ([3]; 48 h, read-out: IC50 Dd2 48 hr): 31 nM; IC50 ([3]; 72 h, read-out: IC50 Dd2 72 hr): 21 nM; IC50 ([3]; 96 h, read-out: IC50 Dd2 96 hr): 22 nM
N=C(NN=Cc1ccc(C(=O)O)cc1)NN=Cc1ccc(C(=O)O)cc1 [Compound 29]	–	–	–	–	–	–	–	IC50 (P. falciparum Dd2; multi-drug resistant strain, 72 hr): > 5000 nM; IC50 (P. falciparum Tm90-C2B; multi-drug resistant clinical isolate, also atovaquone resistant, 72 hr): > 5000 nM; IC50 (P. falciparum strain D6; pan-sensitive strain, 72 hr, asynchronous cultures in human erythrocytes): > 5000 nM; IC50 [1]: > 200000 nM; activity against all tested P. falciparum strains (P. falciparum strains): inactive; IC50 (P. falciparum A6; mutant line resistant to respiratory antagonists, 72 hr): > 5000 nM
N=C(N/N=C/c1cccc(-n2cnnn2)c1)N/N=C/c1cccc(-n2cnnn2)c1 [Compound 34]	> 5000	> 5000	4790	1640	–	–	107000	activity against all tested P. falciparum strains (P. falciparum strains; D6, Dd2, Tm90-C2B, A6): inactive
N=C(N/N=C/c1ccc(-n2cnnn2)cc1)N/N=C/c1ccc(-n2cnnn2)cc1 [Compound 35]	> 5000	> 5000	> 5000	838	–	–	> 200000	activity against all tested P. falciparum strains (P. falciparum strains; D6, Dd2, Tm90-C2B, A6): inactive
